Broadly, the melting point is the temperature of the solid-liquid transition.

Data on 89 molecules can be found in a melting point compilation (Tetko et al.; mined from patent text by program, amines drawn as free bases though some values may be those of a salt).

Where only a bound is given, the exact number is not on record here.

As for `Cc1nn(CCO)c(C)c1Oc1cc(Cl)cc(Cl)c1`, the melting point lay within 114 to 115 °C.

In turn, `Cc1cc(Cl)ccc1-n1c(CF)nc2ccc(N)cc2c1=O` came in with a melting point of 191 to 193 °C. To `C#CCNC(=O)C(C#N)=C1CC(C)(C)c2cc(OC)c(OC)cc21` belongs 202 to 205 °C; to `CN1OCC/C(=C\c2nc(C(C)(C)C)c(O)c(C(C)(C)C)n2)C1=O`, 180 to 181 °C; to `CCOC(=O)C1=C(C)N2CCNC2=C(C(=O)OCC)C1c1cccs1` (centres undefined), 134 °C. Take `c1ccc(SCC2=NCCN2)cc1`: the melting point was in the range of 84 to 85.6 °C. As for `Cc1nc(-c2ccc3c(=O)n(CC(C)C)c(CNC(=O)OC(C)(C)C)c(-c4ccccc4)c3c2)sc1C(N)=O`, the melting point is 227 to 228 °C. In the case of `CC(=O)OC1CCC2(C)C(=CCC3C2CCC2(C)C(C(C)CO)=CCC32)C1` (centres undefined), the melting point fell in the range of 170 to 171 °C. `CCOC(=O)C1=Cc2cc(I)ccc2NC1C(F)(F)F` (centres undefined) returned a melting point of 137 to 138 °C. To `Nc1ncc(C(=O)NCc2ccc(C(F)(F)F)cc2)c(N2CCCC2)n1` belongs 227 to 228 °C; to `O=C1N[C@H](C(=O)O)Cc2cc(O)c(O)cc21`, 268 to 272 °C; to `CC(C)(C)OC(=O)Nc1c(F)ccc2c1OC(C)(C)O2`, 106 to 107 °C. Regarding `CC(=O)c1cc(NC(=O)NCCN(CCNC(=O)Nc2cc(C(C)=O)cc(C(C)=O)c2)CCNC(=O)Nc2cc(C(C)=O)cc(C(C)=O)c2)cc(C(C)=O)c1`, the melting point was 197 to 198 °C.

In turn, `CN(C)CCCNC(=O)c1ccccc1NS(=O)(=O)c1cccc(C(F)(F)F)c1` gave a melting point of 116 to 123 °C. Molecule `CN(C)C=Nc1ccc(-c2cc3c(Nc4cccc(Cl)c4)ncnc3[nH]2)cc1` showed a melting point of more than 300 °C.

On to `COC(=O)c1cc(C(=O)c2ncc3ccccn23)ccc1N`, for which the melting point is 192 °C.

`NC1CCN(c2nc3c(cc2F)c(=O)c(C(=O)O)cn3C2CC2)C1` (centres undefined) displayed a melting point of 266 to 267 °C. With `Cc1cc(C)cc(-c2nc(N)sc2-c2ccnc(NCc3ccccc3)c2)c1`, the melting point lay in the range of 99 to 102 °C.

`O=c1[nH]c2c(Cc3nnn[nH]3)c3ccccc3n2c2ccccc12`: the melting point is 262 to 265 °C. For the molecule `CCCc1c2c(c3oc(C(=O)OC)cc(=O)c3c1OC)CCCC2`, the melting point turned out to be 124 °C. Consider `COc1ccc(CCCOc2c(C)cc(-c3noc(C(F)(F)F)n3)cc2C)cn1`, for which the melting point fell in the range of 62 to 64 °C. Turning to `Cc1ccc(S(=O)(=O)Nc2nc(-c3ccc(OCc4ccccc4)cc3)cs2)cc1`, the melting point is 166 to 167 °C. To `CCOc1ccccc1C1(O)C(=O)Nc2cc(C)c(Cl)cc21` (centres undefined) belongs 253 °C; to `CC1(C)C(=O)Nc2cc3[nH]c(-c4ccc(Cl)c(Cl)c4)nc3cc21`, 320 to 325 °C; to `CSC(C)(C(=O)O)c1ccc(N2C(=O)c3ccccc3C2=O)cc1` (centres undefined), 202 to 204 °C. On to `COC(=O)C1(NC(=O)Cc2cc(-c3ccc(Cl)cc3)ccc2Cl)CCCC(C(F)(F)F)C1` (centres undefined), for which the melting point was 148 °C. Molecule `CC(C)(C)OC(=O)N1CCC[C@@H]1Cc1cccc2ccc(N)cc12` yielded a melting point of 157 to 158 °C. As for `O=C(c1ccccc1)c1cc([N+](=O)[O-])ccc1NC1CC1`, the melting point was determined as 125 °C.

On to `c1ccc(CN2CCC3(CC2)OCCO3)cc1`, for which the melting point was less than 50 °C. Molecule `CCCCCc1cnc(-c2ccc(-c3ccc(C#N)cc3)cc2)nc1` registered a melting point of 124 °C. The same measure for `CC(=O)SC(C(=O)c1ccccc1)C(C)C(=O)N1C(c2cccc(C(F)(F)F)c2)SC[C@H]1C(=O)O` (some centres undefined): 152 to 154 °C; for `CN(C)CCC(Oc1ccc(NS(C)(=O)=O)cc1)c1ccccc1` (centres undefined): 145 to 147 °C. Molecule `CC(C)CC(C(=O)O)c1cc(OCC2CC2)c(-c2ccc(C(F)(F)F)cc2)cc1F` (centres undefined) showed a melting point of 110 to 111 °C. For `CCC(C)COC(=O)C1(OC(=O)c2ccc(O)cc2)C=CC=CC1` (centres undefined), the melting point lay within 90.8 to 92.6 °C. To `Cc1n[nH]c(C)c1-c1cncc(OC2SCC(O)C(O)C2O)c1` (centres undefined) belongs 227 °C; to `CCCc1ccc(C(=O)OCC)n1Cc1ccc(-c2ccccc2C(=O)O)cc1`, 111 to 115 °C. To `CCOC(=O)C1=C(N=CN(C)C)NC(C)=C(C(=O)OC(C)C)C1c1ccccc1Cl` (centres undefined) belongs 138 °C; to `COCOc1c(NC(=O)NN)cc(OC)cc1C(C)(C)C`, 132 to 134 °C. The molecule `CC1(c2ccccc2)OC(C(=O)O)Oc2ccc(Cl)cc21` (centres undefined) showed a melting point of 144 °C. Take `C=CCC(CO)(NC)c1ccc(Cl)c(Cl)c1` (centres undefined): the melting point lay within 78 to 78.5 °C. The same measure for `Cc1nc2c(-c3cccc(N4CCN(CCO)CC4)c3)cnn2c(N)c1-c1cccc(Cl)c1`: 108 to 116 °C. `CS(=O)(=O)N1CCC(NC(=O)Nc2ccc(OC(F)(F)F)cc2)CC1` displayed a melting point of 233 to 234 °C. As to `CN(O)CCc1ccc2c(c1)C(=O)c1ccccc1CO2`, the melting point fell in the range of 101 to 102 °C. To `[N-]=[N+]=NC(=O)c1ccc2c(c1)C(=O)OC2=O` belongs 100 to 103 °C. In the case of `COc1cccc(/C=C/C(=O)Nc2ccccc2C(=O)O)c1`, the melting point is 183 to 184 °C.

For the molecule `COc1cc(OC)c2c(c1)C(=O)c1cc(C)cc(OC)c1C2=O`, the melting point stood at 225 °C.

`CCC1(CC)CN(C(C)(C)C)C(=O)C(CC)(CC)N1OC(=O)c1ccccc1` registered a melting point of 91 to 93 °C. In turn, `CC1=C(/C=C/C(C)=C/C=C\c2ccc(C(=O)O)cc2)C(C)(C)CCC1` had a melting point of 179 °C. As for `CN(CCOc1ccc(OC(F)(F)F)cc1)CC1(C)Cn2cc([N+](=O)[O-])nc2O1` (centres undefined), the melting point was 86.4 to 89.2 °C.

`CN(C)CCCOc1cnc(-c2cccc(CO)c2)nc1` came in with a melting point of 95 to 97 °C.

Turning to `CCN1C(=O)C(C)(C)C(=O)N(C)c2cc(CN(CCn3ccc4oc(C)cc4c3=O)Cc3cc(C)n(C)n3)ccc21`, the melting point fell in the range of 138 to 139 °C. Molecule `COc1c(Cl)cc(N2C(=O)N3CCCC3(Cc3ccc(C#N)cc3)C2=O)cc1Cl` (centres undefined) came in with a melting point of 95.1 °C. The same measure for `N#CC(N)c1ccc(F)cc1F` (centres undefined): 52 °C; for `COc1ccnc(CSc2nc3cc4c(cc3[nH]2)OCO4)c1C`: 215 to 220 °C; for `CCOC(=O)c1c(O)c2cccnc2n(Cc2ccccc2)c1=O`: 143 °C. `COC(=O)C(C#N)=C(C=CN(C)C)c1ccc(OC)cc1` returned a melting point of 175 to 178 °C.

In turn, `CN(C)Cc1ccc(CSCCNC(=O)NCCCN(C)CCN(Cc2ccc(F)cc2)c2ccccn2)o1` registered a melting point of 102 °C. In the case of `Brc1cc2nc(NC3=NCCN3)[nH]c2cc1Br`, the melting point fell in the range of 261 to 267 °C. As to `CCOP(=O)(OCC)ON=C1C=CC(=C(C#N)c2ccccc2C)S1`, the melting point was 90 to 91 °C. To `O=C(O)C1(c2ccc(I)cc2)CC1` belongs 150 to 152 °C. The molecule `Clc1ccc(-n2c(Cn3ccnc3)nc3ccccc32)cc1` yielded a melting point of 121 to 122 °C.

In turn, `CCn1c([N+](=O)[O-])cnc1-c1nnc2ccc(N)nn12` gave a melting point of 218 to 222 °C.

With `CN(C=O)C1C(O)CC2C3CCc4cc(O)ccc4C3CCC21C` (centres undefined), the melting point was 272 to 276 °C. The molecule `C=C1COc2c(N3CCC(NC(=O)OC(C)(C)C)C3)c(F)cc3c(=O)c(C(=O)O)cn1c23` (centres undefined) had a melting point of 219 to 220 °C.

For the molecule `CCCc1nnc2c3cccc(Br)c3ccn12`, the melting point fell in the range of 197 to 199 °C. Regarding `CC(C)(C)c1cc(C(=O)Oc2ccc(C(=O)O)cc2)cc(C(C)(C)C)c1O`, the melting point was 223 to 224 °C.

Consider `O=C(O)C(=O)CC(=O)c1cccn1Cc1ccc2ccccc2c1`, for which the melting point lay within 160 to 162 °C. For `CC1=NN(c2cc(-c3ccnc(Nc4cccc(Cl)c4)n3)ccn2)C(=O)CC1`, the melting point lay within 189 to 192 °C. For the molecule `Cc1ccccc1-c1nc(-c2ccccc2)c[nH]1`, the melting point lay within 145 to 146 °C. On to `O=C(O)C1CC(=O)N(c2ccc(O)cc2)C1` (centres undefined), for which the melting point lay in the range of 201 to 204 °C. The molecule `COC(=O)COc1ccc(C(C)=O)c2ccccc12` yielded a melting point of 123 to 125 °C. In the case of `COc1ccc(CN2CCC(N=C(NC#N)N3CCc4ccccc4C3)CC2)cc1`, the melting point is 135 to 137 °C. As for `CCCCCCCC(=N)NC(=O)Nc1ccc(Cl)cc1`, the melting point fell in the range of 156 to 165 °C. Molecule `O=C1CCC(O)=C1Cc1cccc(CCNS(=O)(=O)c2ccc(Cl)cc2)c1` displayed a melting point of 176 to 178 °C.

Turning to `CC1CC(=O)N(c2ccc(Cl)cc2)C(=O)C1`, the melting point lay in the range of 163 to 164 °C. As to `CSCCC(CS)NC(=O)OC(C)(C)C` (centres undefined), the melting point came to 37 °C.

With `CC#Cc1cc(C)c(C2=C(O)C3(CCN(OC)CC3)N(C)C2=O)c(C)c1`, the melting point is more than 240 °C. `COC(=O)c1cncn1C1c2ccccc2C(F)(F)C1(C)C` (centres undefined) gave a melting point of 96 to 97 °C.

Molecule `Cc1ccc(S(=O)(=O)Nc2cc(C(=O)O)c3c(c2)C(C(=O)O)CC(c2ccccc2)N3)cc1` (centres undefined) displayed a melting point of 235 to 237 °C. In the case of `CS(=O)(=O)c1ccc(C2=C(c3cccc(F)c3)CN(C3CC3)C2=O)cc1`, the melting point is 179 to 180 °C. To `CC(=O)COc1ccc2ccc(Oc3c(Cl)cc(C(F)(F)F)cc3Cl)cc2c1` belongs 132 °C; to `C#CCSc1cc(C(=O)O)cc(S(N)(=O)=O)c1Oc1ccccc1`, 197 to 198 °C; to `Cc1cc(-n2ccnc2)c2cccc(OCc3c(Cl)ccc(S(=O)(=O)N4CCC[C@H]4C(=O)N(C)CCCN(C)C)c3Cl)c2n1`, 80 °C. On to `c1ccc(Oc2ccc3nnn(Cc4ccc5ncccc5c4)c3n2)cc1`, for which the melting point fell in the range of 225 to 227 °C. Take `COc1nc(C(F)F)cnc1NS(=O)(=O)c1cccc(Cl)c1Cl`: the melting point fell in the range of 117 to 118 °C. Regarding `O=C1CCC(c2cc(F)c(OC3CCN(C4CCC4)CC3)c(F)c2)=NN1`, the melting point lay in the range of 162 to 164 °C. The molecule `O=C(O)Cc1ccc(OCc2ccccc2)c(C(=O)O)c1` registered a melting point of 143 to 145 °C.

In turn, `O=C(O)C1=Cc2cc(Cl)c(-c3ccccc3)cc2OC1C(F)(F)F` (centres undefined) had a melting point of 185 to 188 °C. As for `Cc1c(Cl)cccc1S(=O)(=O)Nc1ccc2c(c1)nc(C)n2C`, the melting point lay in the range of 283 to 284 °C.
